Assay results from patent publication US6878690B2, “Compounds and methods” (PharmAxis Pty Ltd., priority 2000, dated 2005).
Where “and” joins values, the source holds several entries; their conditions need not be identical. Identical values can stand only once.

How the values were obtained:
[1] = tested on: passively transferred EAE; experiment: Passively transferred EAE induced with concanavalin A stimulated spleen lymphoblasts (Example 24); assay type: in vivo, Lewis rats; set-up: key to Clinical score - Treated, Mean: 0 = asymptomatic to 5 = hind limb paralysis; details: for Clinical score - Treated, Mean: group mean; for Mean maximum clinical score / DI (disease index): treated group
Procedure: In a similar type of experiment outlined in Example 20, and in order to study the effect of the agents of the present invention in vivo on a disease caused by T lymphocyte migration into a specific tissue, further experiments were performed in a Lewis rat model of passively transferred EAE. Here, myelin basic protein (MBP)-specific T lymphocytes were generated in spleens of Lewis rats that had been immunised with guinea pig MBP in Freund's complete adjuvant. Thus, in this manner donor T lymphocytes were generated from male 12-20 week old Lewis rats weighing 200 to 250 g. These rats were injected intradermally in a footpad of each hind foot with an emulsion of guinea pig myelin basic protein (MBP; prepared according to the method of Deibler et al., 1972; incorporated herein by reference) in Freund's complete adjuvant (0.1 ml). The adjuvant emulsion was prepared by emulsifying equal volumes of a mixture of 85% light mineral oil (0.8417 g/mL (Sigma)) plus 15% mannide monooleate (Sigma) containing Mycobacterium butyricum (4 mg/ml; Difco) and normal saline containing guinea pig myelin basic protein (0.25 mg/ml). Thus, the total dose per rat was 25 micrograms of MBP and 400 micrograms of M. butyricum. Ten days following injection, the rats were euthanased and the spleens removed aseptically by blunt dissection and placed into mixed lymphocyte culture medium. This medium was prepared in the normal fashion from Dulbecco's Modified Eagle's Medium (DMEM; GIBCO, Grand Island, N.Y.) supplemented with glucose (4 g/L), folic acid (6 mg/L), L-asparagine (36 mg/L), sodium bicarbonate (2 g/L), L-arginine (116 mg/L), L-glutamine (2 mM), sodium pyruvate (1 mM), HEPES (10 mM), 2-mercaptoethanol (5×10^−5 M), penicillin, streptomycin, neomycin, and 10% fetal calf serum. A single cell suspension was prepared from the spleens in the usual manner by gently pushing them through a stainless steel screen. The cells were washed twice and cultured asceptically for 72 hours at 37° C. in a humidified atmosphere containing 5% carbon dioxide at a concentration of 2 million cells per milliliter in the presence of concanavalin A (2 microgram/mL). The cells were collected and washed twice in Hanks balanced salt solution. Cells were resuspended in Hanks balanced salt solution and each recipient animal (10-12 weeks old female Lewis rats; 160-180 g) received 40-42.5 million lymphoblasts by lateral tail vein injection in a volume of 0.5 ml.
In a typical experiment 4-5 recipient rats were anesthetised with diethyl ether and implanted with mini-osmotic pumps (Alzet 2001, Alza Corp., Palo Alto Calif., USA) containing the test compound. A second group of 4 animals, the control group, under ether anesthesia, were implanted with Alzet 2001 pumps containing normal saline. Mini-osmotic pumps were implanted three days after cell transfer. Disease severity (clinical score) was scored on an arbitrary scale of severity ranging from 0 to 5 as follows: 0, asymptomatic; 1, flaccid distal half of tail; 2, entire tail flaccid; 3, ataxia, difficulty in righting reflex; 4, hind limb weakness; 5, hind limb paralysis. Mean maximum clinical scores were calculated and the disease index (DI) for each group was calculated as described in Example 20. The results of these experiments are outlined in Tables 6, 7 and 8.

[2] = tested on: DTH response to 2,4-dinitrofluorobenzene (DNFB); experiment: Delayed-type hypersensitivity (DTH) response to DNFB, ear swelling; assay type: in vivo, Balb/C mice; details: for Mean percentage decrease in ear swelling in treated animals: versus saline controls; for Mean Difference, Treated: group mean; for Difference (right minus left ear), Treated / Right ear thickness, Treated / Left ear thickness, Treated: individual mice, 24 hours after challenge; for Right ear thickness, Treated: challenged ear; for Left ear thickness, Treated: control (unchallenged) ear
Description: In the present Example, a murine model of Type IV hypersensitivity or delayed-type hypersensitivity (DTH) response to cutaneous contact with the chemical hapten 2,4-dinitrofluorobenzene (DNFB) (Aldrich Chemical Company Inc, USA) was used as a model to measure the anti-inflammatory effects of compounds of the present invention. Specific pathogen-free 8-12 week old female Balb/C mice, weighing 19-21 g, were sensitised in a similar manner to that described by Klimuk et al., (Klimuk et al., 1999) by applying a solution of DNFB (0.5% in acetone:olive oil (4:1, v/v); 30 microliters,) onto a 2 cm^2 shaved area of the abdomen. After 7 days, the animals were anesthetised with diethyl ether and 8 microliters of DNFB (0.35% in acetone:olive oil (4:1, v/v) was applied to the dorsal and ventral surfaces of the right pinna. Prior to regaining consciousness, the mice were implanted intraperitoneally with Alzet 2001 mini-osmotic pumps (Alza Corp., Palo Alto Calif., USA) containing phosphoric acid mono-[6-(3-hexyloxy-propyl)-3,4,5-trihydroxy-tetrahydro-pyran-2-ylmethyl] ester, sodium salt in normal saline. The dose delivered was 50 mg/kg/day. Control animals for this group received saline delivered in identical mini-osmotic pumps. A second experimental group of mice received phosphoric acid mono-[3-(3,4,5-trihydroxy-6-phosphonooxymethyl-tetrahydro-pyran-2-yl)-propyl] ester disodium salt via one-week delivery Alzet 2001 mini-osmotic pumps implanted intraperitoneally. This compound was delivered at a dose of 40 mg/kg/day. Control animals for this group received saline delivered in identical mini-osmotic pumps. In a third experiment a separate group of mice received (3,4,5-trihydroxy-6-phosphonooxymethyl-tetrahydro-pyran-2-yl)-acetic acid disodium salt via one-week delivery Alzet 2001 mini-osmotic pumps that were placed intraperitoneally. This compound was delivered at 45 mg/kg/day. The control group for this experiment received identical mini-osmotic pumps containing normal saline. In a fourth experiment a group of mice received 3-phenyl-2-[2-(3,4,5-trihydroxy-6-phosphonooxymethyl-tetrahydro-pyran-2-yl)-acetylamino]-propionic acid monosodium salt via one-week delivery Alzet 2001 mini-osmotic pumps that were placed subcutaneously. This compound was delivered at 62 mg/kg/day. The control group for this experiment received identical mini-osmotic pumps containing normal saline. In a fifth experiment a group of mice received hexanoic acid 3-(3,4,5-trihydroxy-6-phosphonooxymethyl-tetrahydro-pyran-2-yl)-propyl ester sodium salt via one-week delivery Alzet 2001 mini-osmotic pumps that were placed subcutaneously. This compound was delivered at 40 mg/kg/day. The control group for this experiment received identical mini-osmotic pumps containing normal saline.
Twenty-four hours after challenge the mice were lightly anesthetised with diethyl ether and the thickness of the left and right pinnae measured (in millimeters) using a dial gauge micrometer (Interapid, Switzerland). Care was taken to measure only the outer two thirds of the ear. The increase in ear thickness initiated by the DTH response was determined by subtracting the measurement of the left ear (untreated) from the right ear (challenged).
In Table 4, values in the columns labeled Left and Right are measurements of ear thickness in millimeters of the control and challenged ears respectively.

[3] = 62 mg/kg/day, mini-osmotic pump subcutaneously, monosodium salt
[4] = 40 mg/kg/day, mini-osmotic pump subcutaneously, monosodium salt
[5] = 40 mg/kg/day, mini-osmotic pump intraperitoneally, disodium salt

Compound: O=C(CC1OC(COP(=O)(O)O)C(O)C(O)C1O)NC(Cc1ccccc1)C(=O)[O-].[Na+] (stereo not drawn) [3-phenyl-2-[2-(3,4,5-trihydroxy-6-phosphonooxymethyl-tetrahydro-pyran-2-yl)-acetylamino]-propionic acid monosodium salt]
- Clinical score - Treated, Mean ([1]; day 4, 62 mg/kg/day subcutaneously): 0
- Clinical score - Treated ([1]; day 4, individual rats, 62 mg/kg/day subcutaneously, scale 0 to 5): 0
- Clinical score - Treated, Mean ([1]; day 5, 62 mg/kg/day subcutaneously): 0.8
- Clinical score - Treated ([1]; day 5, individual rats, 62 mg/kg/day subcutaneously, scale 0 to 5, monosodium salt, 62 mg/kg/day): 0 (2×) and 1 (2×) and 2
- Clinical score - Treated, Mean ([1]; day 6, 62 mg/kg/day subcutaneously): 0.9
- Clinical score - Treated ([1]; day 6, individual rats, 62 mg/kg/day subcutaneously, scale 0 to 5, monosodium salt, 62 mg/kg/day): 0 and 0.5 and 1 (2×) and 2
- Clinical score - Treated, Mean ([1]; day 7, 62 mg/kg/day subcutaneously): 0.7
- Clinical score - Treated ([1]; day 7, individual rats, 62 mg/kg/day subcutaneously, scale 0 to 5, monosodium salt, 62 mg/kg/day): 0 (2×) and 0.5 and 1 and 2
- Clinical score - Treated, Mean ([1]; day 8, 62 mg/kg/day subcutaneously): 0.7
- Clinical score - Treated ([1]; day 8, individual rats, 62 mg/kg/day subcutaneously, scale 0 to 5, monosodium salt, 62 mg/kg/day): 0 (2×) and 1 (2×) and 1.5
- Clinical score - Treated, Mean ([1]; day 9, 62 mg/kg/day subcutaneously): 0.4
- Clinical score - Treated ([1]; day 9, individual rats, 62 mg/kg/day subcutaneously, scale 0 to 5, monosodium salt, 62 mg/kg/day): 0 (3×) and 0.5 and 1
- Clinical score - Treated, Mean ([1]; day 10, 62 mg/kg/day subcutaneously): 0.2
- Clinical score - Treated ([1]; day 10, individual rats, 62 mg/kg/day subcutaneously, scale 0 to 5, monosodium salt, 62 mg/kg/day): 0 (3×) and 0.5 (2×)
- Mean maximum clinical score ([1]; 62 mg/kg/day subcutaneously, control 1.5): clinical score 1.0
- DI (disease index) ([1]; 62 mg/kg/day subcutaneously, control DI 14.1): DI - 8.13 Mean maximum
- Mean percentage decrease in ear swelling in treated animals ([2]; 62 mg/kg/day subcutaneously): Mean percentage decrease in ear swelling in treated animals: 49.3%
- Mean Difference, Treated ([2]; 62 mg/kg/day subcutaneously, saline control mean 0.134): 0.068 millimeters
- Difference (right minus left ear), Treated [2, 3]: 0.11 millimeters and 0.09 millimeters and 0.06 millimeters and 0.04 millimeters (2×)
- Right ear thickness, Treated [2, 3]: 0.33 millimeters and 0.31 millimeters and 0.29 millimeters and 0.25 millimeters (2×)
- Left ear thickness, Treated [2, 3]: 0.22 millimeters (2×) and 0.23 millimeters and 0.21 millimeters (2×)

Compound: CCCCCC(=O)OCCCC1OC(COP(=O)(O)O)C(O)C(O)C1O.[Na] (stereo not drawn) [hexanoic acid 3-(3,4,5-trihydroxy-6-phosphonooxymethyl-tetrahydro-pyran-2-yl)-propyl ester monosodium salt]
- Mean percentage decrease in ear swelling in treated animals ([2]; 40 mg/kg/day subcutaneously): Mean percentage decrease in ear swelling in treated animals: 47.6%
- Mean Difference, Treated ([2]; 40 mg/kg/day subcutaneously, saline control mean 0.126): 0.066 millimeters
- Difference (right minus left ear), Treated [2, 4]: 0.07 millimeters (2×) and 0.08 millimeters and 0.05 millimeters and 0.06 millimeters
- Right ear thickness, Treated [2, 4]: 0.29 millimeters (3×) and 0.28 millimeters and 0.27 millimeters
- Left ear thickness, Treated [2, 4]: 0.22 millimeters (2×) and 0.21 millimeters (2×) and 0.23 millimeters

Compound: O=P([O-])([O-])OCCCC1OC(COP(=O)(O)O)C(O)C(O)C1O.[Na+].[Na+] (stereo not drawn) [phosphoric acid mono-[3-(3,4,5-trihydroxy-6-phosphonooxymethyl-tetrahydro-pyran-2-yl)-propyl] ester disodium salt]
- Clinical score - Treated, Mean ([1]; day 4, 40 mg/kg/day intraperitoneally): 0
- Clinical score - Treated ([1]; day 4, individual rats, 40 mg/kg/day intraperitoneally, scale 0 to 5): 0
- Clinical score - Treated, Mean ([1]; day 5, 40 mg/kg/day intraperitoneally): 1.375
- Clinical score - Treated ([1]; day 5; individual rats; 40 mg/kg/day intraperitoneally; scale 0 to 5; disodium salt, 40 mg/kg/day)): 2 (2×) and 0 and 1.5
- Clinical score - Treated, Mean ([1]; day 7, 40 mg/kg/day intraperitoneally): 2.125
- Clinical score - Treated ([1]; day 7; individual rats; 40 mg/kg/day intraperitoneally; scale 0 to 5; disodium salt, 40 mg/kg/day)): 2.5 and 1 and 3 and 2
- Clinical score - Treated, Mean ([1]; day 8, 40 mg/kg/day intraperitoneally): 1.75
- Clinical score - Treated ([1]; day 8; individual rats; 40 mg/kg/day intraperitoneally; scale 0 to 5; disodium salt, 40 mg/kg/day)): 2 (2×) and 0.5 and 2.5
- Clinical score - Treated, Mean ([1]; day 9, 40 mg/kg/day intraperitoneally): 0.75
- Clinical score - Treated ([1]; day 9; individual rats; 40 mg/kg/day intraperitoneally; scale 0 to 5; disodium salt, 40 mg/kg/day)): 1 (3×) and 0
- Clinical score - Treated, Mean ([1]; day 10, 40 mg/kg/day intraperitoneally): 0.125
- Clinical score - Treated ([1]; day 10; individual rats; 40 mg/kg/day intraperitoneally; scale 0 to 5; disodium salt, 40 mg/kg/day)): 0 (3×) and 0.5
- Mean maximum clinical score ([1]; 40 mg/kg/day intraperitoneally, control 3.0): clinical score 2.3
- DI (disease index) ([1]; 40 mg/kg/day intraperitoneally, control DI 45.0): DI - 18.6 Mean maximum
- Mean percentage decrease in ear swelling in treated animals ([2]; 40 mg/kg/day intraperitoneally): Mean percentage decrease in ear swelling in treated animals: 30%
- Mean Difference, Treated ([2]; 40 mg/kg/day intraperitoneally, saline control mean 0.086): 0.060 millimeters
- Difference (right minus left ear), Treated [2, 5]: 0.07 millimeters and 0.03 millimeters and 0.02 millimeters and 0.06 millimeters and 0.12 millimeters
- Right ear thickness, Treated [2, 5]: 0.28 millimeters (2×) and 0.25 millimeters and 0.23 millimeters and 0.33 millimeters
- Left ear thickness, Treated [2, 5]: 0.21 millimeters (3×) and 0.22 millimeters (2×)
